From ChEMBL document CHEMBL1909046, “DrugMatrix in vitro pharmacology data”

Columns and labels:
Thromboxane-A synthase = target: T1, Thromboxane-A synthase (Homo sapiens, UniProt P24557); assay: biochemical; type: tissue-based, Platelet;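 further: enzyme inhibition assay with PGH2 supplied as substrate; in other assays of this panel Not Active means under 50% inhibition at 10 µM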
T1 sequence (P24557 whole entry): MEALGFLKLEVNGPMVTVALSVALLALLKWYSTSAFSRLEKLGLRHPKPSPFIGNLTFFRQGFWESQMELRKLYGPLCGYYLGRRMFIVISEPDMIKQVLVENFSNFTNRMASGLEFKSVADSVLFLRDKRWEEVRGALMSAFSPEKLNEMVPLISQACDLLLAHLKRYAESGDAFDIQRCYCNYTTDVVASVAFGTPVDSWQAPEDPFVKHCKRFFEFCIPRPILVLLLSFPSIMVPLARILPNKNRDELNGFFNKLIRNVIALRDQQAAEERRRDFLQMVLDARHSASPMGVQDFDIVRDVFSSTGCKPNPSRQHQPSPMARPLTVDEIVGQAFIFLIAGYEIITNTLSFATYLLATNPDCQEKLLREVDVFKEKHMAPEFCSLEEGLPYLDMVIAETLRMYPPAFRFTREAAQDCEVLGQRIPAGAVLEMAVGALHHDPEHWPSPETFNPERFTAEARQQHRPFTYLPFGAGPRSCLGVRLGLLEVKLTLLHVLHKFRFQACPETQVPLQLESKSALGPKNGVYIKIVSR

[1] = DRUGMATRIX: Platelet-Derived Growth Factor (PDGF) radioligand binding (ligand: [125I] PDGF); type: cell-based; details: nih3t3; Not Active = under 50% inhibition at 10 µM
[2] = target: Sodium-dependent dopamine transporter (Homo sapiens, UniProt Q01959); assay: DRUGMATRIX: Dopamine Transporter radioligand binding (ligand: [125I] RTI-55); type: cell membranes, CHO-K1, Membrane; details: Not Active = under 50% inhibition at 10 µM
Sequence of Sodium-dependent dopamine transporter (Q01959 whole entry): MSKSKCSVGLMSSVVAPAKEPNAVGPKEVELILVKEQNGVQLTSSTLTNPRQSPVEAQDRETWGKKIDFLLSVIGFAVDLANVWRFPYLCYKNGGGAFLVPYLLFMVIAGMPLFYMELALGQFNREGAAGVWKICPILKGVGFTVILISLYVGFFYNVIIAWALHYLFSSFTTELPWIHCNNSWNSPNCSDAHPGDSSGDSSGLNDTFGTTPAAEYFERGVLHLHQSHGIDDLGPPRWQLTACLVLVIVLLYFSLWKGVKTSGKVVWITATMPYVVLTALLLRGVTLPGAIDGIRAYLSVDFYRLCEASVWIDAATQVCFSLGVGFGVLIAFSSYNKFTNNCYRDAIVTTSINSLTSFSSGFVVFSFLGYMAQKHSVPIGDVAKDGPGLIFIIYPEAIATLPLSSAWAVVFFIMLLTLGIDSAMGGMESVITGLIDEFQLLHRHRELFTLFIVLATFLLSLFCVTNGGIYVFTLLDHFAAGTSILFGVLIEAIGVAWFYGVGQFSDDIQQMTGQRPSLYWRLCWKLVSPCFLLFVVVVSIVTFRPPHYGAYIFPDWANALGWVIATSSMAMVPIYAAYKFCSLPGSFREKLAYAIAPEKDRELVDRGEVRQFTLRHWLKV

[3] = target: Vascular endothelial growth factor receptor 1 (Homo sapiens, UniProt P17948); type: cell-based; details: huvec; further: in other assays of this panel Not Active means under 50% inhibition at 10 µM
Sequence of Vascular endothelial growth factor receptor 1 (P17948 whole entry): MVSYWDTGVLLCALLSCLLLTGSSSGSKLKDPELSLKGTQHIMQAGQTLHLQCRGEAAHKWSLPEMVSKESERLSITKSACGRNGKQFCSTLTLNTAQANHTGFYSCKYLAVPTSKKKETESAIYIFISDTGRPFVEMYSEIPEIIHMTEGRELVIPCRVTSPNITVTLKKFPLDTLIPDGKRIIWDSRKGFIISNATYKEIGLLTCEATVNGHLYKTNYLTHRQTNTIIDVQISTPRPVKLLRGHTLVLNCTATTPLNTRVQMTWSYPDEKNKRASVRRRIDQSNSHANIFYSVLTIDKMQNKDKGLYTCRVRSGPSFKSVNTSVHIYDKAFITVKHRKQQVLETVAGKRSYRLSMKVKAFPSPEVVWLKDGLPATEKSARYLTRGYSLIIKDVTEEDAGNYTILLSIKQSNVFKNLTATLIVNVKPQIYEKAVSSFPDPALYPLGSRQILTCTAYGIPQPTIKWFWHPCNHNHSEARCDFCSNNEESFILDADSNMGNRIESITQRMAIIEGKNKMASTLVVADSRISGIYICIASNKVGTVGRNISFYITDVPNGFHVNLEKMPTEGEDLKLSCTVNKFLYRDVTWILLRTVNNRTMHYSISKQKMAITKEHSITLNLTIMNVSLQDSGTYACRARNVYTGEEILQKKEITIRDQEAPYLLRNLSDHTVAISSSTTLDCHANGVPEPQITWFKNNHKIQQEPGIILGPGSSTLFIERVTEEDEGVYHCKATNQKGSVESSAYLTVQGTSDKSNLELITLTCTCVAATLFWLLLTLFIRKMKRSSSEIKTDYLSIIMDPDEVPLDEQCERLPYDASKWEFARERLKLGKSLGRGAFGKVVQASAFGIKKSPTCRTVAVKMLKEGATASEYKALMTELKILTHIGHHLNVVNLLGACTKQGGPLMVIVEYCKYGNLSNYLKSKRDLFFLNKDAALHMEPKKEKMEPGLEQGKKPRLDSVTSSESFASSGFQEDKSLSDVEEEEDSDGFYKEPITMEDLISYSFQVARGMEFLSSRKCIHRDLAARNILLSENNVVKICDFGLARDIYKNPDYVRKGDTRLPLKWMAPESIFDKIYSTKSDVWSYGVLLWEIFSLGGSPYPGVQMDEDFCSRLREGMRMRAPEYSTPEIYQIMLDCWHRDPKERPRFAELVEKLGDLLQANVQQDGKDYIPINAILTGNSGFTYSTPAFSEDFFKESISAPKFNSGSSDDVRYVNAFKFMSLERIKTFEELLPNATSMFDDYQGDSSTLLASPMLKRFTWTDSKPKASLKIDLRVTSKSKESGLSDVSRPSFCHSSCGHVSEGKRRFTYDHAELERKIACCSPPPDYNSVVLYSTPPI

Melanocortin receptor 3 = Melanocortin receptor 3 (Homo sapiens, UniProt P41968); type: cell membranes, Membrane; details: hek293; further: in other assays of this panel Not Active means under 50% inhibition at 10 µM
Sequence of Melanocortin receptor 3 (P41968 whole entry): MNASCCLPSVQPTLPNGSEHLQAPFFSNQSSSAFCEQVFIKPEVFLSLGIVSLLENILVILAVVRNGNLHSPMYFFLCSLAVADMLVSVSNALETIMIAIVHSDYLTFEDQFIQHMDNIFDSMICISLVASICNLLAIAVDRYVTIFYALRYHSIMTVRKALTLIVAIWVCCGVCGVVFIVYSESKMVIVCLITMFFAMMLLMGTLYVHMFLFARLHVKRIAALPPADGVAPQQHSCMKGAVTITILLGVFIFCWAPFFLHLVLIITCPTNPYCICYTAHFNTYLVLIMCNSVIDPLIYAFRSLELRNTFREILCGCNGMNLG

[4] = target: Epidermal growth factor receptor (Homo sapiens, UniProt P00533); assay: DRUGMATRIX: Protein Tyrosine Kinase, EGF Receptor enzyme inhibition (substrate: Poly(Glu:Tyr)); type: cell-based, Insect cells; details: Not Active = under 50% inhibition at 10 µM
Sequence of Epidermal growth factor receptor (P00533 whole entry): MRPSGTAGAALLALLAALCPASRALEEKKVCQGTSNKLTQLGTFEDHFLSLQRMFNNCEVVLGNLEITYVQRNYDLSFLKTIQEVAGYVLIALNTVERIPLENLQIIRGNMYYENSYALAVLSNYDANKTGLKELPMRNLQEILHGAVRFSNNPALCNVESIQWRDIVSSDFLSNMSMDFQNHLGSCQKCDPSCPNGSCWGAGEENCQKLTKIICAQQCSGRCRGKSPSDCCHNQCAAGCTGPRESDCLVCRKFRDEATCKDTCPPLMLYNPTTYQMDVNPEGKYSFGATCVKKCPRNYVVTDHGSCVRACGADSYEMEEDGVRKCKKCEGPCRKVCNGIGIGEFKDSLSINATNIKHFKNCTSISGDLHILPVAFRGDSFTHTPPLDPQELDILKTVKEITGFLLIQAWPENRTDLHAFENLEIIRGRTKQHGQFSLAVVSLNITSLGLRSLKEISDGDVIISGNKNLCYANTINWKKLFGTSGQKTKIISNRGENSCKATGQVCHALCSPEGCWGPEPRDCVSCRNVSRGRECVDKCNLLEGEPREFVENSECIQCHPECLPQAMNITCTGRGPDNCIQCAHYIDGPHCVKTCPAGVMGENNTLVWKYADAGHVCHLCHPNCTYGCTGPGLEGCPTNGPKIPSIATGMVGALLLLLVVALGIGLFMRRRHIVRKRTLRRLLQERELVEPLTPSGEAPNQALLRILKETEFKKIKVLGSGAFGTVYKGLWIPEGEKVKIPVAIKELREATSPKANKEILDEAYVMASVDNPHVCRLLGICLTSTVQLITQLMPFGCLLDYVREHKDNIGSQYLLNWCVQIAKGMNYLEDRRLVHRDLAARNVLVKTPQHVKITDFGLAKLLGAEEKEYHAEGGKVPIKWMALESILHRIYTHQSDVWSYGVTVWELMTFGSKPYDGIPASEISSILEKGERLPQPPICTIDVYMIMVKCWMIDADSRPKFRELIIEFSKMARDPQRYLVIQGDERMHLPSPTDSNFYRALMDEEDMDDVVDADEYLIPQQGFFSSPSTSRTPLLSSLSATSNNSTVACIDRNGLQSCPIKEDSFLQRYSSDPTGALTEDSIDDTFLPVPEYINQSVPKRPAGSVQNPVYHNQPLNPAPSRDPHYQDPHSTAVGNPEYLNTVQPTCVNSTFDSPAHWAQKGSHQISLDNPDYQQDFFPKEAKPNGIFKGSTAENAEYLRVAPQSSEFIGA

With `Cc1c(O)cccc1C(=O)N[C@@H](CSc1ccccc1)[C@H](O)CN1C[C@H]2CCCC[C@H]2C[C@H]1C(=O)NC(C)(C)C` the IC50 (Thromboxane-A synthase; read-out: IC50) was 21.1 µM, the IC50 [1] was “Not Active” and the Ki [1] was “Not Active”. The IC50 ([2]; read-out: IC50) was 15.5 µM, the Ki ([2]; read-out: Ki) was 12.3 µM and the IC50 [3] was “Not Active”. The IC50 (Melanocortin receptor 3) was “Not Active” and the IC50 ([4]; read-out: IC50) was 55.6 µM.
In the case of `Cc1cccc(C)c1NC(=O)C1CCCCN1C` (centres undefined) [MEPIVACAINE], the IC50 (Thromboxane-A synthase; platelet) is reported as “Not Active”, the IC50 [1] is reported as “Not Active” and the Ki [1] is reported as “Not Active”. The IC50 ([2]; cho-k1) was “Not Active”, the IC50 [3] was “Not Active” and the IC50 (Melanocortin receptor 3) was “Not Active”. The IC50 ([4]; insect cells) was “Not Active”.
For `O=c1[nH]c(=O)n([C@H]2C[C@H](O)[C@@H](CO)O2)cc1F` [FLOXURIDINE], the IC50 (Thromboxane-A synthase; platelet) was “Not Active”, the IC50 [1] was “Not Active” and the Ki [1] was “Not Active”. The IC50 ([2]; cho-k1) was “Not Active”, the IC50 [3] was “Not Active” and the IC50 (Melanocortin receptor 3) was “Not Active”. For the same molecule, the IC50 ([4]; insect cells) was “Not Active”.
For `O=C(O)CC(O)(CC(=O)O)C(=O)O` [CITRIC ACID], the IC50 (Thromboxane-A synthase; platelet) was “Not Active”, the IC50 [1] was “Not Active” and the Ki [1] was “Not Active”. The IC50 ([2]; cho-k1) was “Not Active”, the IC50 [3] was “Not Active” and the IC50 (Melanocortin receptor 3) was “Not Active”. For the same molecule, the IC50 ([4]; insect cells) was “Not Active”.
For `Cc1cc(O)cc(C)c1Cl` [CHLOROXYLENOL], the IC50 (Thromboxane-A synthase; platelet) was “Not Active”, the IC50 [1] was “Not Active” and the Ki [1] was “Not Active”. For the same molecule, the IC50 ([2]; cho-k1) was “Not Active”, the IC50 [3] was “Not Active” and the IC50 (Melanocortin receptor 3) was “Not Active”. For the same molecule, the IC50 ([4]; insect cells) was “Not Active”.
For `O=C(O)CCCc1cccs1`, the IC50 (Thromboxane-A synthase; platelet) was “Not Active”, the IC50 [1] was “Not Active” and the Ki [1] was “Not Active”. The IC50 ([2]; cho-k1) was “Not Active”, the IC50 [3] was “Not Active” and the IC50 (Melanocortin receptor 3) was “Not Active”. For the same molecule, the IC50 ([4]; insect cells) was “Not Active”.
With `CCCNC(=O)NS(=O)(=O)c1ccc(Cl)cc1` [CHLORPROPAMIDE] the IC50 (Thromboxane-A synthase; platelet) was “Not Active”, the IC50 [1] was “Not Active” and the Ki [1] was “Not Active”. For the same molecule, the IC50 ([2]; cho-k1) was “Not Active”, the IC50 [3] was “Not Active” and the IC50 (Melanocortin receptor 3) was “Not Active”. For the same molecule, the IC50 ([4]; insect cells) was “Not Active”.
With `CC(=O)OC[C@H]1O[C@@H](n2ncc(=O)[nH]c2=O)[C@H](OC(C)=O)[C@@H]1OC(C)=O` [AZARIBINE] the IC50 (Thromboxane-A synthase; platelet) was “Not Active”, the IC50 [1] was “Not Active” and the Ki [1] was “Not Active”. The IC50 ([2]; cho-k1) was “Not Active”, the IC50 [3] was “Not Active” and the IC50 (Melanocortin receptor 3) was “Not Active”. For the same molecule, the IC50 ([4]; insect cells) was “Not Active”.
For `NCCCNCCSP(=O)(O)O` [AMIFOSTINE], the IC50 (Thromboxane-A synthase; platelet) was “Not Active”, the IC50 [1] was “Not Active” and the Ki [1] was “Not Active”. For the same molecule, the IC50 ([2]; cho-k1) was “Not Active”, the IC50 [3] was “Not Active” and the IC50 (Melanocortin receptor 3) was “Not Active”. For the same molecule, the IC50 ([4]; insect cells) was “Not Active”.
For `CC(C)(C)NCC(O)COc1cccc2c1CC(O)C(O)C2` (centres undefined) [NADOLOL], the IC50 (Thromboxane-A synthase; platelet) was “Not Active”, the IC50 [1] was “Not Active” and the Ki [1] was “Not Active”. The IC50 ([2]; cho-k1) was “Not Active”, the IC50 [3] was “Not Active” and the IC50 (Melanocortin receptor 3) was “Not Active”. The IC50 ([4]; insect cells) was “Not Active”.
For `C[C@H]1COc2c(N3CCN(C)CC3)c(F)cc3c(=O)c(C(=O)O)cn1c23.C[C@H]1COc2c(N3CCN(C)CC3)c(F)cc3c(=O)c(C(=O)O)cn1c23.O` [LEVOFLOXACIN], the IC50 (Thromboxane-A synthase; platelet) was “Not Active”, the IC50 [1] was “Not Active” and the Ki [1] was “Not Active”. The IC50 ([2]; cho-k1) was “Not Active”, the IC50 [3] was “Not Active” and the IC50 (Melanocortin receptor 3) was “Not Active”. The IC50 ([4]; insect cells) was “Not Active”.
For `COc1ccnc(C[S+]([O-])c2nc3ccc(OC(F)F)cc3[nH]2)c1OC` (centres undefined) [PANTOPRAZOLE], the IC50 (Thromboxane-A synthase; platelet) was “Not Active”, the IC50 [1] was “Not Active” and the Ki [1] was “Not Active”. For the same molecule, the IC50 ([2]; cho-k1) was “Not Active”, the IC50 [3] was “Not Active” and the IC50 (Melanocortin receptor 3) was “Not Active”. For the same molecule, the IC50 ([4]; insect cells) was “Not Active”.
With `CCCCC1=NC2(CCCC2)C(=O)N1Cc1ccc(-c2ccccc2-c2nnn[nH]2)cc1` [IRBESARTAN] the IC50 (Thromboxane-A synthase; platelet) was “Not Active”, the IC50 [1] was “Not Active” and the Ki [1] was “Not Active”. The IC50 ([2]; cho-k1) was “Not Active”, the IC50 [3] was “Not Active” and the IC50 (Melanocortin receptor 3) was “Not Active”. The IC50 ([4]; insect cells) was “Not Active”.
For `COC(=O)Nc1nc2cc(C(=O)c3ccc(F)cc3)ccc2[nH]1` [FLUBENDAZOLE], the IC50 (Thromboxane-A synthase; platelet) was “Not Active”, the IC50 [1] was “Not Active” and the Ki [1] was “Not Active”. The IC50 ([2]; cho-k1) was “Not Active”, the IC50 [3] was “Not Active” and the IC50 (Melanocortin receptor 3) was “Not Active”. For the same molecule, the IC50 ([4]; insect cells) was “Not Active”.
